One data set concerns the target HIV protease enzyme (Human immunodeficiency virus type 1 group M subtype B, UniProt P04585). In words: IC50s measured in vitro against HIV protease enzyme at pH 4.7 and 6.2.
The subject of data set [1] is HIV infected lymphocyte derived CEM cells. In words: Cellular Infection Assay, XTT cytopathic procedure in CEM cells (antiviral efficacy). It is filed as cell-based. On the procedure: Compounds were tested in lymphocyte derived CEM cells using the XTT cytopathic procedures and were performed at Southern Research Institute (Buckheit, et al., Antiviral Res., 1993;21:247; see also Weislow, et al., J. Nat. Cancer Inst., 1989;81:577). Compound concentrations were 0.32, 1, 3.2, 10, 32, and 100 μM. The EC50 represents the concentration of agent, which reduces HIV cytopathic effects 50% relative to untreated control. Cellular toxicity of the agents are estimated from the TC50 which represents the concentration of the agent which inhibits 50% of the viability of uninfected cells.
EC50 indicates the concentration of the drug which provide 50% protection against HIV.
Background: Tetrazolium assays rely on reduction of a dye to a coloured formazan, in cell work by metabolically active cells.

Data set [2] addresses T1, Recombinant HIV-1 protease (Human immunodeficiency virus type 1 group M subtype B, UniProt P04585).
T1 construct: Recombinant HIV-1 protease (>96% purity); purchased Bachem Bioscience, Inc. (King of Prussia, Pa.)
The data set is described as follows: HIV Protease Assay (Ki). It is filed as biochemical. As to conditions: pH 6.2, 37° C., 40 μM substrate III. On the procedure: Recombinant HIV-1 protease (>96% purity) and HIV protease substrate III (the undecapeptide H-His-Lys-Ala-Arg-Val-Leu-Nph-Glu-Ala-Nle-Ser-NH2, 97% purity) were purchased from Bachem Bioscience, Inc. (King of Prussia, Pa.).
The methods employed follow the procedures of Tummino, et al., Archives of Biochemistry and Biophysics, 1995;316:523). […] (total volume, […]). […] The final inhibitor concentrations used were 0 (0.1, 0.2, in some experiments), 0.5, 1, 2, 5, 10, 20, 50, and 100 μM. The solution was mixed, incubated for 5 minutes and the reaction quenched by addition of trifluoracetic acid, 2% final. The (leu-p-nitro-phe) bond of the substrate is cleaved by the enzyme and substrate and products separated by reverse-phase HPLC (high pressure liquid chromatography). Absorbance was measured at 220 nm, peak areas determined, and percentage conversion to product used to calculate percentage control (=[% conversion (+inhibitor)/% conversion (−inhibitor)]×100).
Ki means inhibitory constant; it approximately the equilibrium binding constant for the binding of the inhibitor to the free enzyme.

For a further data set, the system named is uninfected CEM cells. In words: Cellular toxicity in uninfected CEM cells (XTT). It is filed as cell-based. The conditions noted are these: cytotoxicity in 50% of uninfected CEM cells; read-out: TC50 (the source's name). The protocol: (§1) Compound concentrations were 0.32, 1, 3.2, 10, 32, and 100 μM.
Data set [3] can be described thus: Cellular toxicity in uninfected CEM cells (XTT). It is filed as cell-based. As to conditions: human, uninfected CEM cells (lymphocyte derived), cytotoxicity in 50% of uninfected CEM cells; read-out: TC50 (the source's name). On the procedure: as §1

Read-outs that look alike come from different tables or passages of the source.

By IC50 is commonly meant the concentration that inhibits the measured activity by half. In the case of `Cc1ccc(C(C)(C)C)c(Sc2c(O)cc(-c3ccccc3)oc2=O)c1`, the results for the IC50 at HIV protease enzyme (pH (4.7)) and against HIV protease enzyme (pH (6.2)) were 28 nM and 280 nM, respectively.
As for `Cc1ccc(C(C)(C)C)c(SC2=C(O)CC(CCc3ccccc3)(c3ccccc3)OC2=O)c1` (centres unmarked), the figures for the 50% inhibitory concentration (IC50) at HIV protease enzyme (pH (4.7)) and against HIV protease enzyme (pH (6.2)) were 10 nM and 35 nM, respectively.
The EC50 is the concentration that produces a half-maximal response. For orientation: melting point means the temperature, or range, at which the solid turns liquid. As a reminder, the Ki is a dissociation constant, usually derived from enzyme kinetics or from competition with a known ligand. Take `CCCN(C1=C(O)CC(CCc2ccc(O)cc2)(C(C)C)OC1=O)c1cccc(NS(=O)(=O)c2ccc(C(F)(F)F)cn2)c1` (centres unmarked) [Example 2, 5-Trifluoromethyl-pyridine-2-sulfonic acid [3-({4-hydroxy-6-[2-(4-hydroxy-phenyl)-ethyl]-6-isopropyl-2-oxo-5,6-dihydro-2H-pyran-3-yl}-propyl-amino)-phenyl]-amide]: the melting point was 107 to 110 °C. Moreover, in data set [1] (read-out: Antiviral Efficacy EC50, CEM cells, 50% protection against HIV cytopathic effects), the half-maximal effective concentration (EC50) came to 1000 nM. The inhibition constant Ki in data set [2] (Inhibition of HIV Protease Ki) was 0.083 nM. The CC50 with uninfected CEM cells amounted to 71000 nM.
Molecule `CC(C)C1(CCc2ccc(O)cc2)CC(O)=C(N(CCC#N)c2ccccc2)C(=O)O1` (centres unmarked) [Example 21, 3-({4-Hydroxy-6-[2-(4-hydroxy-phenyl)-ethyl]-6-isopropyl-2-oxo-5,6-dihydro-2H-pyran-3-yl}-phenyl-amino)-propionitrile] displayed a melting point of 119 to 121 °C. For the same molecule, the EC50 in data set [1] (Human immunodeficiency virus 1, CCRF-CEM, read-out: Antiviral Efficacy EC50, CEM cells, 50% protection against HIV cytopathic effects) was determined as 2700 nM. In addition, in data set [2] (Inhibition of HIV Protease Ki), the inhibition constant Ki was 1.6 nM. Further, the CC50 in data set [3] worked out at 320000 nM.
Take `CCCN(C1=C(O)CC(CCc2ccccc2)(C(C)C)OC1=O)c1ccccc1` (centres unmarked) [drawing 7]: the IC50 at HIV protease enzyme (pH (4.7)) and against HIV protease enzyme (pH (6.2)) was 4 nM throughout.
Consider “Pyridine-2-sulfonic acid [3-({4-hydroxy-6-[2-(4-hydroxy-phenyl)-ethyl]-6-isopropyl-2-oxo-5,6-dihydro-2H-pyran-3-yl}-propyl-amino)-phenyl]-amide [Example 14]”, for which, in data set [1] (CEM cells, 50% protection against HIV cytopathic effects, read-out: Antiviral Efficacy EC50), the EC50 worked out at 1600 nM. For the same molecule, the Ki in data set [2] (read-out: Inhibition of HIV Protease Ki) stood at 0.54 nM. For the same molecule, the CC50 in the data set on uninfected CEM cells worked out at 210000 nM.

The values above are taken from patent publication US6512006B1, “HIV protease inhibitors” (Warner-Lambert Company, priority 1999, dated 2003).
